In US4148795A, “Dithiocarbamate ester bactericides and fungicides” (American Cyanamid Company, priority 1976, dated 1979):
Values joined by “and” are separate entries in the source; they are usually repeats but may differ in a detail not shown here. Equal values may be shown once. Read-outs that look alike come from different tables or passages of the source.

Assays:
Aspergillus niger [1] = assay: Spore germination inhibition; assay type: cell-based; conditions: 24 hours
How it was run: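 Test compound is suspended in water at 100, 10 or 1 ppm. and dispensed into one dram "opticlear" vials. Each vial receives one drop of a spore suspension taken from seven-day Aspergillus niger cultures grown on potato-dextrose agar. Capped vials rotate on a tumbler for 24 hours, then are inspected for inhibition of mycelial growth.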

Monilinia fructicola [2] = assay: Spore germination inhibition; assay type: cell-based; conditions: for inhibition at 1 ppm / inhibition at 10 ppm: 24 hours; for inhibition at 100 ppm: 24 h, read-out: % Inhibition of Spore Germination
How it was run: (§1)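 Test compounds were suspended in water at 100, 10 or 1 ppm and inoculated with spore suspensions from 7-day (A. niger) or 14-day potato-dextrose agar cultures. Vials were tumbled for 24 hours and then examined for inhibition of mycelial growth.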

[3] = test system: Stemphylium sarcinaeforme; assay: Spore germination inhibition; assay type: cell-based; conditions: Stemphylium sarciniforme; for inhibition at 100 ppm: 24 h, read-out: % Inhibition of Spore Germination; for inhibition at 1 ppm / inhibition at 10 ppm: 24 hours
How it was run: as §1

Aerobacter aerogenes = assay type: cell-based; conditions: 100 ppm; subcultures 72 hours at 37° C; further: key: 0: No Effect; 9: Kill of Bacteria; 5: Stasis, but not Kill of all Bacteria
Staphylococcus aureus = assay type: cell-based; conditions: 100 ppm; subcultures 72 hours at 37° C; further: key: 0: No Effect; 9: Kill of Bacteria; 5: Stasis, but not Kill of all Bacteria
Xanthomonas vesicatoria = assay type: cell-based; conditions: 100 ppm; subcultures 72 hours at 37° C; further: key: 0: No Effect; 9: Kill of Bacteria; 5: Stasis, but not Kill of all Bacteria
Aspergillus niger [4] = assay: Agar dilution plate; assay type: cell-based; conditions: An; 100 ppm, 72 hours at 23° C
How it was run: (§2)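 Compounds were mixed into Sabouraud's dextrose agar at about 100 ppm active ingredient, allowed to set, and inoculated with the fungus. Plates were incubated about 72 hours at 23° C and then growth was scored 0 (no control) to 5 (100% effectiveness). Testing was repeated twice.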

Fusarium lycopersici = assay: Agar dilution plate; assay type: cell-based; conditions: Fl; 100 ppm, 72 hours at 23° C
How it was run: as §2

Monilinia fructicola [5] = assay: Agar dilution plate; assay type: cell-based; conditions: Mf; 100 ppm, 72 hours at 23° C
How it was run: as §2

Pythium de Baryanum = assay: Agar dilution plate; assay type: cell-based; conditions: Pd; 100 ppm, 72 hours at 23° C
How it was run: as §2

Rhizoctonia solani = assay: Agar dilution plate; assay type: cell-based; conditions: Rs; 100 ppm, 72 hours at 23° C
How it was run: as §2

[6] = test system: Stemphylium sarcinaeforme; assay: Agar dilution plate; assay type: cell-based; conditions: Ss; 100 ppm, 72 hours at 23° C
How it was run: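 Compound incorporated into Sabouraud's dextrose agar at about 100 ppm, inoculated with Stemphylium sarcinaeforme and incubated about 72 hours at 23 °C. Growth scored 0 (no control) or 5 (100% effectiveness), test run in repeat.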

Pseudomonas solaracaerum = assay type: cell-based; conditions: 100 ppm, 72 hours at 23° C; further: key: 0: no control; 5: 100% effectiveness of the test compound against the specified organism
[7] = test system: Collectotrichum lagenarium; assay: Agar dilution plate; assay type: cell-based; conditions: Cl; 100 ppm, 72 hours at 23° C
How it was run: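 Compounds were incorporated at about 100 ppm in Sabouraud's dextrose agar, inoculated, and incubated about 72 h at 23 °C. Growth was scored 0 (no control) or 5 (100% effectiveness), and the test was repeated twice.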

Verticillium albo-atrum = assay: Agar dilution plate; assay type: cell-based; conditions: Va; 100 ppm, 72 hours at 23° C
How it was run: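 Compounds incorporated at about 100 ppm into Sabouraud's dextrose agar, then inoculated with the fungus and incubated about 72 hours at 23° C. Growth scored as 0 (no control) or 5 (100% effectiveness); test repeated twice.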

[8] = test system: Colletotrichum lagenarium; conditions: in vivo; further: key: 5: clean, no disease; 4: trace of disease; 3: slight disease; 2: moderate disease; 1: severe disease; 0: like controls
Piricularia oryzae = assay type: in vivo; set-up: scale not given here; conditions: Rice Blast, five days
Venturia inaequalis [9] = conditions: in vivo
Phytophthora infestans = assay type: in vivo; set-up: scale not given here; conditions: Tomato Late Blight, five days
Venturia inaequalis [10] = assay: Apple scab on field-grown trees; assay type: in vivo; conditions: 50% wettable powder
Excerpt: Apple Scab (Venturia inaequalis)
(§3) The compound of Example 13 was applied as a foliar spray for ten applications at weekly intervals from May 1 through July 2, and then two more sprays on a two-week schedule ending on July 31.
(§4) The active compound was applied as a 50% wettable powder having the following composition:
50% Active Compound (Example 13 )
(§5) Rates of 50% wettable applied were:
(§6) 2 pounds/100 gallons of water
(§7) 1 pound/100 gallons of water
(§8) Three tree replicates of each rate
(§9) Variety: Red Delicious were used.

[11] = test system: Red Delicious apple trees; assay: Phytotoxicity on field-grown apple trees; assay type: in vivo; conditions: 50% wettable powder, 2 and 1 pounds/100 gallons of water
Excerpt: as §3, §4, §5, §6, §7, §8, §9

| Compound | inhibition at 1 ppm (Aspergillus niger [1]) [%] | inhibition at 10 ppm (Aspergillus niger [1]) [%] | inhibition at 100 ppm (Aspergillus niger [1]) [%] | inhibition at 1 ppm (Monilinia fructicola [2]) [%] | inhibition at 10 ppm (Monilinia fructicola [2]) [%] | inhibition at 100 ppm (Monilinia fructicola [2]) [%] | inhibition at 100 ppm [3] [%] | Antibacterial Activity rating (Aerobacter aerogenes) | Antibacterial Activity rating (Staphylococcus aureus) | Antibacterial Activity rating (Xanthomonas vesicatoria) | Agar Dilution Plate rating (Aspergillus niger [4]) | Agar Dilution Plate rating (Fusarium lycopersici) | Agar Dilution Plate rating (Monilinia fructicola [5]) | Agar Dilution Plate rating (Pythium de Baryanum) | Agar Dilution Plate rating (Rhizoctonia solani) | Agar Dilution Plate rating [6] | Agar Dilution Plate rating (Pseudomonas solaracaerum) | Agar Dilution Plate rating [7] | Agar Dilution Plate rating (Verticillium albo-atrum) | disease control index [8] | other results |
| --- | --- | --- | --- | --- | --- | --- | --- | --- | --- | --- | --- | --- | --- | --- | --- | --- | --- | --- | --- | --- | --- |
| CN(C)CC(C)(CSC(=S)N(C)C)[N+](=O)[O-] (stereo not shown) [Example 7, 3-Dimethylamino-2-methyl-2-nitropropyl Dimethyldithiocarbamate] | 0 | 100 | 100 | 0 | 100 | 100 | 0 | 9 | 9 | 5 | 0 | 0 | 5 (100% effectiveness of the test compound against the specified organism) | 0 | 5 (100% effectiveness of the test compound against the specified organism) | 5 (100% effectiveness of the test compound against the specified organism) | 0 | 5 (100% effectiveness of the test compound against the specified organism) | 5 (100% effectiveness of the test compound against the specified organism) | 2 | disease control index (Piricularia oryzae; 150 ppm): 2; disease control index (Piricularia oryzae; 300 ppm): 2; disease control index (Piricularia oryzae; 600 ppm): 4; disease control index (Piricularia oryzae; 1200 ppm): 5; disease control index (Venturia inaequalis [9]): 5 and 0 |
| CN(C)C(=S)SC(C[N+](=O)[O-])c1ccccc1 (stereo not drawn) [Example 13, α-(Nitromethyl)benzyl Dimethyldithiocarbamate] | 100 | 100 | 100 | 100 | 100 | 100 | 100 | 5 | 5 | 5 | 0 | 5 (100% effectiveness of the test compound against the specified organism) | 5 (100% effectiveness of the test compound against the specified organism) | 5 (100% effectiveness of the test compound against the specified organism) | 0 | 5 (100% effectiveness of the test compound against the specified organism) | 0 | 5 (100% effectiveness of the test compound against the specified organism) | 5 (100% effectiveness of the test compound against the specified organism) | 5 | inhibition at 1 ppm [3]: 100%; inhibition at 10 ppm [3]: 100%; disease control index (Phytophthora infestans; 150 ppm): 5; disease control index (Phytophthora infestans; 300 ppm): 5; disease control index (Phytophthora infestans; 600 ppm): 5; disease control index (Phytophthora infestans; 1200 ppm): 5; disease control index (Piricularia oryzae; 150 ppm): 5; disease control index (Piricularia oryzae; 300 ppm): 5; disease control index (Piricularia oryzae; 600 ppm): 5; disease control index (Piricularia oryzae; 1200 ppm): 5; disease control index (Venturia inaequalis [9]): 5; scab on trees (Venturia inaequalis [10]; 1 pound/100 gallons of water, end of season): trace of scab; scab on trees (Venturia inaequalis [10]; 2 pounds/100 gallons of water, all season): free of scab all season long; phytotoxicity [11]: No phytotoxicity |
| CN(C)C(=S)SC(C[N+](=O)[O-])c1ccc2c(c1)OCO2 (stereo not drawn) [Example 28, 3,4-(Methylenedioxy)-α-(nitromethyl)benzyl Dimethyldithiocarbamate] | 100 | 100 | 100 | 100 | 100 | 100 | 100 | 9 | 5 | 5 | 0 | 0 | 5 (100% effectiveness of the test compound against the specified organism) | 5 (100% effectiveness of the test compound against the specified organism) | 0 | 5 (100% effectiveness of the test compound against the specified organism) | 0 | 5 (100% effectiveness of the test compound against the specified organism) | 5 (100% effectiveness of the test compound against the specified organism) | 5 | inhibition at 1 ppm [3]: 0%; inhibition at 10 ppm [3]: 0%; disease control index (Phytophthora infestans; at 100 ppm): 5; disease control index (Phytophthora infestans; at 500 ppm): 5; disease control index (Piricularia oryzae; 150 ppm): 0; disease control index (Piricularia oryzae; 300 ppm): 0; disease control index (Piricularia oryzae; 600 ppm): 5; disease control index (Piricularia oryzae; 1200 ppm): 5; disease control index (Venturia inaequalis [9]): 5 and 0 |
